Experimental data: patent publication US20250025447A1, “TOLL-LIKE RECEPTOR AGONISTS AND ANTAGONISTS AND USES THEREOF” (Regents of the University of Minnesota, priority 2021, published 2025)
Entries after “also recorded” stand apart in the source; their conditions may differ. Read-outs that look alike come from different tables or passages of the source. One block for each compound: values may come before it.

Experiments:
[1] = target: T1, human TLR-8 (Homo sapiens, UniProt Q9NR97); experiment: TLR-8 HEK-SEAP reporter competition (antagonist) assay against agonist compound 5; conditions: agonist compound 5 at different concentrations, FIGS. 1A-D
T1 sequence (Q9NR97 27-1041): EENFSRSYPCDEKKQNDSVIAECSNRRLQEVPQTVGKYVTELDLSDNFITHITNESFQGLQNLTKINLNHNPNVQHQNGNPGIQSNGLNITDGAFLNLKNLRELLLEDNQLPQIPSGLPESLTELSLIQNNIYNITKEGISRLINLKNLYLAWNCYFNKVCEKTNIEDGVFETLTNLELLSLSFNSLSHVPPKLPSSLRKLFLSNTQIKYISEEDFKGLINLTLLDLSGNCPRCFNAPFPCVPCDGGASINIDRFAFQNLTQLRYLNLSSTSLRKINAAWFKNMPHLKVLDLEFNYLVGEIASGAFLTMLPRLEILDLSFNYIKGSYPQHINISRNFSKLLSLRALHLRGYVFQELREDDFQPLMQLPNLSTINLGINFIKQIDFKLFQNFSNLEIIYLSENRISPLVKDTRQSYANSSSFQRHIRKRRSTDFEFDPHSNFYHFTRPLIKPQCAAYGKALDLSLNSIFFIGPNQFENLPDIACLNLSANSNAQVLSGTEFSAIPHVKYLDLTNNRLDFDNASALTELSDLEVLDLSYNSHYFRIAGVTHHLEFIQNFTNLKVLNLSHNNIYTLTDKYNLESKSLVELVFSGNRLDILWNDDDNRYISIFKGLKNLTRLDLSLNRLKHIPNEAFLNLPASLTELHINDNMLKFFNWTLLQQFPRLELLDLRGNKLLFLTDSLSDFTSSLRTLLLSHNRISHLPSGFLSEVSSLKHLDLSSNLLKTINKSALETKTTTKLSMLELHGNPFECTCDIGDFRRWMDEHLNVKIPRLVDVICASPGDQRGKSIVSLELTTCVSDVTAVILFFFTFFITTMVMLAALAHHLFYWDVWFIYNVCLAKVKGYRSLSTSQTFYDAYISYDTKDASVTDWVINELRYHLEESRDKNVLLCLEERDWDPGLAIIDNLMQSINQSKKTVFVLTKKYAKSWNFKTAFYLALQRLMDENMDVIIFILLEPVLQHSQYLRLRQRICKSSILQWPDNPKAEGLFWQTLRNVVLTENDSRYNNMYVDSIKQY

[2] = target: T2, human TLR-7 (Homo sapiens, UniProt Q9NYK1); experiment: TLR-7/NF-κB/SEAP reporter assay in HEK293 cells, agonist mode
T2 sequence (Q9NYK1 27-1049): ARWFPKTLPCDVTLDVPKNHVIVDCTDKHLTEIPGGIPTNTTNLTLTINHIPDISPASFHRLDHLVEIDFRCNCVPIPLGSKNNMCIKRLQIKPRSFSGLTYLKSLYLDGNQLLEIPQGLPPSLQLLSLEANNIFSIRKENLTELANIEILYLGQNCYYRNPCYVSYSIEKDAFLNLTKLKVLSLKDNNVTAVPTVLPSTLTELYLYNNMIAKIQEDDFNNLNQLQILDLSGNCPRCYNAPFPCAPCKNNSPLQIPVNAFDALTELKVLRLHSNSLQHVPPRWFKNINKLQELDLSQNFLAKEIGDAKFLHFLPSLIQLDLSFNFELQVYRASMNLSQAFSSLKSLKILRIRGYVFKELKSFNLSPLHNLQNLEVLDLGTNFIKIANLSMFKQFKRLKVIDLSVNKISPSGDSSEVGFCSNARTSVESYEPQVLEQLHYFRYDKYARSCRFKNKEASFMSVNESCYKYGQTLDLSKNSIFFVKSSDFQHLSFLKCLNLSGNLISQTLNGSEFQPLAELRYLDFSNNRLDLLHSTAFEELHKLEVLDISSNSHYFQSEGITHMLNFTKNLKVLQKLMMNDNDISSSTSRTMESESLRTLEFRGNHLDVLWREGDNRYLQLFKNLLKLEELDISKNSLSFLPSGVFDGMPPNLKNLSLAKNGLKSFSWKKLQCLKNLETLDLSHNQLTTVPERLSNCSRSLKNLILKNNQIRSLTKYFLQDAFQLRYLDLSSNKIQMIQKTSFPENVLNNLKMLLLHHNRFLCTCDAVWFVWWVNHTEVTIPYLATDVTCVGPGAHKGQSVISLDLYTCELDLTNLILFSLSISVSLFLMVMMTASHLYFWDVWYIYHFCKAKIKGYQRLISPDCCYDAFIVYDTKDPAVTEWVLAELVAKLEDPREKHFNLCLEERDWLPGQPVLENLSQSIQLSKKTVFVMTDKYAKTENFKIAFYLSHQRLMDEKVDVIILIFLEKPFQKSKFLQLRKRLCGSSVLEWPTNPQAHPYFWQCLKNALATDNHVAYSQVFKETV

[3] = target: T1, human TLR-8; experiment: TLR-8/NF-κB/SEAP reporter assay in HEK293 cells, agonist mode; conditions: HEK-SEAP reporter cells
[4] = test system: TNFα, IFNγ and IL-1β production in hPBMCs; experiment: Competition assay of agonist-induced cytokine induction in hPBMCs (ELISA); type: cell-based, human
Description: Preparation and stimulation of PBMC. Human PBMC can be isolated from heparinized blood by standard density-gradient centrifugation over Ficoll-Paque Plus (Pharmacia, Uppsala, Sweden). Briefly, peripheral blood can be drawn by venipuncture into green top heparin tubes. The blood can be diluted 1:1 with PBS, and then layered upon Ficoll-Paque Plus in 50 ml centrifuge tubes. The tubes can be spun at 2000 rpm for 20 min, after which the buffy coats can be collected and washed twice in PBS. The isolated PBMC can be counted and added to the wells of a 24-well plate (5×10^5 cells/1 ml/well) in RPMI 1640 supplemented with 10% FBS, penicillin, streptomycin, sodium pyruvate, nonessential amino acids, and HEPES. TLR agonist 5 and TLR antagonist 3 can be prepared in DMSO and added to the wells (in triplicate) to reach the desired final concentrations. Some wells may only contain DMSO. After 24 h, culture supernatants can be collected, aliquoted, and frozen at −80° C. until analysis.
Quantitation of IL-1p, IFNγ, and TNFα. The amount of cytokines present in the supernatants after stimulation can be determined via Enzyme-Linked Immunosorbent Assay (ELISA) using a BioLegend ELISA MAX Deluxe Set for each cytokine tested. The assays can be conducted following the protocols provided by the assay set. Cell culture supernatants from hPBMCs can be used directly without dilution for the determination of IFNγ and TNFα but can be diluted accordingly for the IL-1β so the observed cytokine level could fall into the linear range of the assay.
These cytokines can be of particular interest due to the role they play in the driving Th1 differentiation of immune cells and development of cellular immunity.

[5] = target: T2, human TLR-7; experiment: TLR-7 HEK-SEAP reporter competition (antagonist) assay against agonist compound 5; conditions: for TLR-7 antagonist activity against compound 5 (in words): agonist compound 5 at different concentrations, FIGS. 1A-D; for IC50: read-out: TLR-7 reporter cell activity, IC50 of antagonists, relative IC50 at fixed concentration of compound 5, 3 μM

TLR-8 antagonist activity against compound 5 (in words) [1]: reduction of TLR-8 activity
TLR-7 agonist activity (in words) ([2]; HEK-SEAP reporter cells): showed agonist activity
EC50 ([2]; read-out: TLR-7 reporter cell activity, EC50, HEK-SEAP reporter cells, agonist): 29.4 ± 2.2 µM
SMILES: COC(=O)c1ccc2c(c1)nc(N)c1nc(CC(C)C)n(CC(C)O)c12 (stereo not drawn) [Compound 1, methyl 4-amino-1-(2-hydroxypropyl)-2-isobutyl-1H-imidazo[4,5-c]quinoline-7-carboxylate]

TLR-8 agonist activity (in words) [3]: showed agonist activity
EC50 ([3]; read-out: TLR-8 reporter cell activity, EC50, agonist): 18.8 ± 3.4 µM
EC50 [2]: 13.4 ± 1.5 µM
TLR-7 agonist activity (in words) ([2]; HEK-SEAP reporter cells): showed agonist activity
SMILES: COC(=O)c1ccc2c(c1)nc(N)c1nc(CC3CC3)n(CC(C)O)c12 (stereo not drawn) [Compound 2, methyl 4-amino-2-(cyclopropylmethyl)-1-(2-hydroxypropyl)-1H-imidazo[4,5-c]quinoline-7-carboxylate]

IC50 [5]: 3.91 ± 0.15 µM
SMILES: COC(=O)c1ccc2c(c1)nc(N)c1nc(CC(C)C)n(Cc3ccc(CN)cc3)c12 [Compound 3, methyl 4-amino-1-(4-(aminomethyl)benzyl)-2-isobutyl-1H-imidazo[4,5-c]quinoline-7-carboxylate]
inhibition of TNFα production ([4]; agonist 5 induced, FIG. 4A): concentration-dependent reduction; also recorded: potent inhibitor
inhibition of IFNγ production ([4]; agonist 5 induced, FIG. 4B): concentration-dependent reduction; also recorded: potent inhibitor
inhibition of IL-1β production ([4]; agonist 5 induced, FIG. 4C): concentration-dependent reduction; also recorded: potent inhibitor
stimulatory activity in hPBMCs ([4]; compound itself): devoid of stimulatory activity
TLR-7 antagonist activity against compound 5 (in words) [5]: concentration-dependent shifts; also recorded: low μM antagonists

IC50 [5]: 4.1 ± 0.2 µM
SMILES: COC(=O)c1ccc2c(c1)nc(N)c1nc(CC3CC3)n(Cc3ccc(CN)cc3)c12 [Compound 4, methyl 4-amino-1-(4-(aminomethyl)benzyl)-2-(cyclopropylmethyl)-1H-imidazo[4,5-c]quinoline-7-carboxylate]
TLR-7 antagonist activity against compound 5 (in words) [5]: concentration-dependent shifts; also recorded: low μM antagonists
